Reference: the supplement of paper PMC4932681

Experiments:
T-47D [1] = experiment: relative IC50 (midpoint of fitted logistic curve, plateau may be below 50% inhibition; CellTiter-Glo viability); higher = less potent; details: 72 h
Procedure, shortened: (§1)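 Drug sensitivity score, relative IC50 as the curve midpoint, and top-dose inhibition were derived from logistic dose–response fits in the Breeze pipeline. These fits used CellTiter-Glo viability, read on a PHERAstar and normalised to vehicle-only and positive controls. Breast cancer cell lines and resistant derivatives had been incubated for 72 h at 37 °C in 384-well plates holding library drugs at five concentrations spanning a 10 000-fold range. Resistant lines were grown in medium with 1 μM of the selecting drug.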

ZR-75-1 Tam2 [2] = experiment: as above; details: 4-OH-tamoxifen in medium 1 µM; 72 h
Procedure, shortened: as §1

BT-474 Tam2 [3] = experiment: as above; details: 4-OH-tamoxifen in medium 1 µM; 72 h
Procedure, shortened: as §1

BT-474 Tam1 [4] = experiment: as above; details: 4-OH-tamoxifen in medium 1 µM; 72 h
Procedure, shortened: as §1

T-47D Tam1 [5] = experiment: as above; details: 4-OH-tamoxifen in medium 1 µM; 72 h
Procedure, shortened: as §1

MCF-7 [6] = experiment: as above; details: 72 h
Procedure, shortened: as §1

T-47D Tam2 [7] = experiment: as above; details: 4-OH-tamoxifen in medium 1 µM; 72 h
Procedure, shortened: as §1

ZR-75-1 Tam1 [8] = experiment: as above; details: 4-OH-tamoxifen in medium 1 µM; 72 h
Procedure, shortened: as §1

ZR-75-1 [9] = experiment: as above; details: 72 h
Procedure, shortened: as §1

BT-474 [10] = experiment: as above; details: 72 h
Procedure, shortened: as §1

T-47D [11] = experiment: drug sensitivity score (DSS) (DSS (dimensionless)); higher = more sensitive; extreme values may be limits of the assay; details: 72 h
Description: (§2)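 FIMM FO2B library drugs were tested at 5 concentrations (10,000-fold range) for 72 h, with CellTiter-Glo viability normalised to DMSO and benzethonium chloride controls. The Drug Sensitivity Score (DSS) is computed from the fitted logistic dose-response curve (area-based; 0 = inactive). Resistant lines and the 'in 1µM tamoxifen' arms were tested in 1 µM 4-OH-tamoxifen.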

ZR-75-1 Tam2 [12] = experiment: as above; details: 4-OH-tamoxifen in medium 1 µM; 72 h
Description: as §2

BT-474 Tam2 [13] = experiment: as above; details: 4-OH-tamoxifen in medium 1 µM; 72 h
Description: as §2

BT-474 Tam1 [14] = experiment: as above; details: 4-OH-tamoxifen in medium 1 µM; 72 h
Description: as §2

T-47D Tam1 [15] = experiment: as above; details: 4-OH-tamoxifen in medium 1 µM; 72 h
Description: as §2

MCF-7 [16] = experiment: as above; details: 72 h
Description: as §2

MCF-7 Tam1 = experiment: as above; details: 4-OH-tamoxifen in medium 1 µM; 72 h
Description: as §2

T-47D Tam2 [17] = experiment: as above; details: 4-OH-tamoxifen in medium 1 µM; 72 h
Description: as §2

ZR-75-1 Tam1 [18] = experiment: as above; details: 4-OH-tamoxifen in medium 1 µM; 72 h
Description: as §2

ZR-75-1 [19] = experiment: as above; details: 72 h
Description: as §2

BT-474 [20] = experiment: as above; details: 72 h
Description: as §2

| SMILES | relative IC50 (T-47D [1]; 4-OH-tamoxifen in medium 0 µM) [µM] | relative IC50 (T-47D [1]; 4-OH-tamoxifen in medium 1 µM) [µM] | relative IC50 (ZR-75-1 Tam2 [2]) [µM] | relative IC50 (BT-474 Tam2 [3]) [µM] | relative IC50 (BT-474 Tam1 [4]) [µM] | relative IC50 (T-47D Tam1 [5]) [µM] | relative IC50 (MCF-7 [6]; 4-OH-tamoxifen in medium 0 µM) [µM] | relative IC50 (MCF-7 [6]; 4-OH-tamoxifen in medium 1 µM) [µM] | relative IC50 (T-47D Tam2 [7]) [µM] | relative IC50 (ZR-75-1 Tam1 [8]) [µM] | relative IC50 (ZR-75-1 [9]; 4-OH-tamoxifen in medium 0 µM) [µM] | relative IC50 (ZR-75-1 [9]; 4-OH-tamoxifen in medium 1 µM) [µM] | relative IC50 (BT-474 [10]; 4-OH-tamoxifen in medium 0 µM) [µM] | relative IC50 (BT-474 [10]; 4-OH-tamoxifen in medium 1 µM) [µM] | drug sensitivity score (T-47D [11]; 4-OH-tamoxifen in medium 0 µM) | drug sensitivity score (T-47D [11]; 4-OH-tamoxifen in medium 1 µM) | drug sensitivity score (ZR-75-1 Tam2 [12]) | drug sensitivity score (BT-474 Tam2 [13]) | drug sensitivity score (BT-474 Tam1 [14]) | drug sensitivity score (T-47D Tam1 [15]) | drug sensitivity score (MCF-7 [16]; 4-OH-tamoxifen in medium 0 µM) | drug sensitivity score (MCF-7 [16]; 4-OH-tamoxifen in medium 1 µM) | drug sensitivity score (MCF-7 Tam1) | drug sensitivity score (T-47D Tam2 [17]) | drug sensitivity score (ZR-75-1 Tam1 [18]) | drug sensitivity score (ZR-75-1 [19]; 4-OH-tamoxifen in medium 0 µM) | drug sensitivity score (ZR-75-1 [19]; 4-OH-tamoxifen in medium 1 µM) | drug sensitivity score (BT-474 [20]; 4-OH-tamoxifen in medium 0 µM) | drug sensitivity score (BT-474 [20]; 4-OH-tamoxifen in medium 1 µM) |
| --- | --- | --- | --- | --- | --- | --- | --- | --- | --- | --- | --- | --- | --- | --- | --- | --- | --- | --- | --- | --- | --- | --- | --- | --- | --- | --- | --- | --- | --- |
| Cc1[nH]c2ccccc2c1CCNCc1ccc(/C=C/C(=O)NO)cc1 [Panobinostat] | 0.0447 | 0.0408 | 0.0496 | 0.022 | 0.0171 | 0.0475 | 0.0287 | 0.0352 | 0.0876 | 0.0647 | 0.0327 | 0.0817 | 0.0197 | 0.0106 | 15.5 | 15.9 | 7.47 | 17.2 | 19.8 | 12.7 | 16.3 | 15.2 | 1.73 | 8.64 | 5.02 | 8.15 | 4.19 | 17.8 | 23.3 |
| CCNC(=O)c1noc(-c2cc(C(C)C)c(O)cc2O)c1-c1ccc(CN2CCOCC2)cc1 [NVP-AUY922] | 0.0199 | 0.00893 | 0.0211 | 0.0102 | 0.0035 | 0.0372 | 0.00659 | 0.0412 | 0.0104 | 0.0225 | 0.0186 | 0.0404 | 0.00412 | 0.00225 | 14.3 | 14.1 | 9.04 | 16.8 | 22.9 | 8.46 | 16.7 | 7.64 | 3.94 | 13.5 | 6.14 | 6.75 | 7.06 | 14.7 | 26.5 |
| CC[C@]1(O)C[C@H]2CN(CCc3c([nH]c4ccccc34)[C@@](C(=O)OC)(c3cc4c(cc3OC)N(C=O)[C@H]3[C@@](O)(C(=O)OC)[C@H](OC(C)=O)[C@]5(CC)C=CCN6CC[C@]43[C@@H]65)C2)C1 [Vincristine] | 0.00441 | 0.0881 | 0.116 | 0.0142 | 0.0209 | 0.0385 | 0.0249 | 0.0265 | 0.0268 | – | 0.00369 | 0.0215 | 0.00233 | 0.0119 | 13.8 | 6.49 | 8.05 | 30.8 | 30.7 | 19.3 | 19.1 | 16.8 | 0.209 | 17.3 | 7.19 | 17.3 | 10.9 | 21.4 | 31.3 |
| Nc1nc2[nH]cnc2c(=S)[nH]1 [Thioguanine] | 3.04 | – | 1.44 | – | – | 3.07 | 1.75 | 1.35 | 2.66 | 1.42 | 1.08 | 2.69 | – | – | 1.83 | 0.681 | 2.86 | 0.61 | 0.758 | 2.75 | 4.8 | 4.57 | 1.96 | 2.48 | 3.48 | 4.81 | 1.76 | 0.0001 | 1.03 |
| O=C(NC[C@H](O)CO)c1ccncc1Nc1ccc(I)cc1F | – | > 10 | > 10 | > 10 | – | > 10 | 2.77 | – | 1.94 | > 10 | > 10 | – | – | 1.85 | 0 | 0 | 0 | 0 | 0.041 | 0 | 1.94 | 1.22 | 0.0844 | 2.47 | 0 | 0 | 0 | 0.702 | 3.92 |
| CCS(=O)(=O)c1cccc(-c2cc(C(=O)NC3CCN(C)CC3)c(C)c3[nH]c4ncc(C)cc4c23)c1 [TAK-901] | 0.182 | – | > 1 | – | 0.371 | 0.138 | – | – | 0.0933 | > 1 | > 1 | > 1 | > 1 | 0.0905 | 3.25 | 0.53 | 0 | 2.87 | 1.12 | 6.67 | 0.354 | 2.84 | 0 | 2.96 | 0 | 0 | 0 | 0 | 3.36 |
| COc1cc([C@@H]2c3cc4c(cc3[C@@H](O[C@@H]3O[C@@H]5CO[C@@H](c6cccs6)O[C@H]5[C@H](O)[C@H]3O)[C@H]3COC(=O)[C@H]23)OCO4)cc(OC)c1O [Teniposide] | 0.306 | 0.697 | 0.737 | – | 3.45 | 0.995 | 2.13 | – | 1.11 | 1.6 | 0.703 | 1.07 | 2.13 | 2.23 | 9.21 | 4.79 | 5.1 | 0.0097 | 3.14 | 8.66 | 4.14 | 2.91 | 0.273 | 4.73 | 3.15 | 4.91 | 3.3 | 4.07 | 6.48 |
| O=c1[nH]cc(F)c(=O)[nH]1 [Fluorouracil] | – | > 10 | – | > 10 | > 10 | > 10 | 1.43 | > 10 | > 10 | > 10 | – | – | > 10 | > 10 | 0.0675 | 0 | 3.05 | 0 | 0 | 0 | 2.93 | 0 | 0 | 0 | 0 | 1.39 | 0.596 | 0 | 0 |
